Test results reported in ChEMBL document CHEMBL5357065, “Neuropharmacological Advances: Harnessing 5-HT2A Receptor Modulators and Psychoplastogens” (ACS Med Chem Lett, 2024).
The source made the active and inactive calls. The calls are words filed in the database; no cut-off is given here.

How the values were obtained:
Type in all cases: functional, cell-based
[1] = system: Cortical neurone; assay: Induction of neurite outgrowth in Wistar rat Cortical neurons assessed as increase in neurite number at <=10 pM incubated for 72 hrs by automated imaging based analysis
[2] = system: Cortical neurone; assay: Induction of neurite outgrowth in Wistar rat Cortical neurons assessed as increase in neurite length at <=10 pM incubated for 72 hrs by automated imaging based analysis
[3] = system: Cortical neurone; assay: Induction of neurite outgrowth in Wistar rat Cortical neurons assessed as increase in neurite branching at <=10 pM incubated for 72 hrs by automated imaging based analysis
[4] = biological target: T1, 5-hydroxytryptamine receptor 2C (Homo sapiens) (UniProt P28335); assay: Positive allosteric modulation of human 5-HT2C receptor stably expressed in CHO cells assessed as modulation of 5-HT induced intracellular Ca2+ release by measuring maximal efficacy at 1 uM preincubated for 15 mins followed by 5-HT addition and measured by FLIPR analysis relative to control; settings: filed as positive allosteric modulator
T1 sequence (whole entry): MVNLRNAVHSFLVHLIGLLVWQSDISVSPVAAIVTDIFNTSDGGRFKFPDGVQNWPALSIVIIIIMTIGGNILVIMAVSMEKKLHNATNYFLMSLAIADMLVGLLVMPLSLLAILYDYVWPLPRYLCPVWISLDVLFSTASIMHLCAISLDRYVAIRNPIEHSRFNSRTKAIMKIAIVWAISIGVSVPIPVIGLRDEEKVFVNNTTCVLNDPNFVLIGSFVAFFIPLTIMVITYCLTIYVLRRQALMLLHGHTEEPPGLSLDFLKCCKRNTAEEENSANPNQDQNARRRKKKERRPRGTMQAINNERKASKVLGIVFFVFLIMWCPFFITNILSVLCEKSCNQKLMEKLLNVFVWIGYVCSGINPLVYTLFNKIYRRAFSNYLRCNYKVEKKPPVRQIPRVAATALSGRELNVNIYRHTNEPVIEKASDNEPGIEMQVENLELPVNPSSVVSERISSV

[5] = biological target: 5-hydroxytryptamine receptor 2A (Homo sapiens) (UniProt P28223); assay: Positive allosteric modulation of human 5-HT2A receptor stably expressed in CHO cells assessed as modulation of 5-HT induced intracellular Ca2+ release by measuring maximal efficacy at 1 uM preincubated for 15 mins followed by 5-HT addition and measured by FLIPR analysis relative to control; settings: filed as positive allosteric modulator
Sequence of 5-hydroxytryptamine receptor 2A (Homo sapiens) (P28223 whole entry): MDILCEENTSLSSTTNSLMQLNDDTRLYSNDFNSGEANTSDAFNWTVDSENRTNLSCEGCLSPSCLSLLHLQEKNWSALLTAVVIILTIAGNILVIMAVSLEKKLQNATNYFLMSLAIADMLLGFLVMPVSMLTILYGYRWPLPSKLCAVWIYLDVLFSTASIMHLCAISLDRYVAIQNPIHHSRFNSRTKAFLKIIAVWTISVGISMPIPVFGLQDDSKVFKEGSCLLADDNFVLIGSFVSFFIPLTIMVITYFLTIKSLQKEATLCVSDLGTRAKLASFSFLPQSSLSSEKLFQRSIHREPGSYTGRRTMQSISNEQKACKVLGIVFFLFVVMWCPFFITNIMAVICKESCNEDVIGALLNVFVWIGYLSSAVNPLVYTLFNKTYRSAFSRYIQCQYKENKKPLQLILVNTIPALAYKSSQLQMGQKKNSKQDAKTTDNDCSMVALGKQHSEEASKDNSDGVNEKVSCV

[6] = biological target: 5-hydroxytryptamine receptor 2B (Homo sapiens) (UniProt P41595); assay: Modulation of 5-HT2B receptor (unknown origin) assessed as modulation of 5-HT induced intracellular Ca2+ release by measuring maximal efficacy at 1 uM preincubated for 15 mins followed by 5-HT addition and measured by FLIPR analysis relative to control; settings: filed as modulator
Sequence of 5-hydroxytryptamine receptor 2B (Homo sapiens) (P41595 whole entry): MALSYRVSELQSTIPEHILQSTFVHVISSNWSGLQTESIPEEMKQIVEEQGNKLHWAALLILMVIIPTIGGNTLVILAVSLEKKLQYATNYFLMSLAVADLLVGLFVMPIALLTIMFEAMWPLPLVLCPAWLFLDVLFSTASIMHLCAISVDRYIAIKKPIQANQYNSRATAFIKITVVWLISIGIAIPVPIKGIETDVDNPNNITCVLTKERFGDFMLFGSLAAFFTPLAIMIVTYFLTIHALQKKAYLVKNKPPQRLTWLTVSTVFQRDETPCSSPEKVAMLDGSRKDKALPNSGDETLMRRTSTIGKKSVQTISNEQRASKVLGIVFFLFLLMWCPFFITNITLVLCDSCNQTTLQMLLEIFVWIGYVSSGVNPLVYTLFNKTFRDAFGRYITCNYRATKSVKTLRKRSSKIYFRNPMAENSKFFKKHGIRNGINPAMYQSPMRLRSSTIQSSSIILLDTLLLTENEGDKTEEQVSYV

| Emax [4] [%] | Emax [5] [%] | Emax [6] [%] | Structure (SMILES) | Activity [1] | Activity [2] | Activity [3] |
| --- | --- | --- | --- | --- | --- | --- |
| – | – | – | COc1ccc2c3c([nH]c2c1)CCN1CCC[C@H]1C3 | Active | Active | Active |
| – | – | – | COc1ccc2c3c([nH]c2c1)CCN1CCC[C@@H]1C3 | Active | Active | Active |
| 120 | 106 | 115 | O=C(NC[C@H](O)CO)c1cc(-c2ccccc2)ccn1 | – | – | – |
| – | – | – | COc1ccn2c(CC(C)N(C)C)ncc2c1 (stereo not drawn) | Active | Active | Active |
| – | – | 105 | O=C(NC[C@H](O)CO)[C@@H]1C[C@H](c2ccccc2)CCN1 | – | – | – |
| 124 | 97.8 | 106 | O=C(CCCc1ccccc1)NC[C@H](O)CO | – | – | – |
| – | – | – | COc1ccc2c3c([nH]c2c1)C[C@@H]1CCCN1CC3 | Active | Active | Active |
| – | – | – | CC(Cc1cnc2cc(F)ccn12)N(C)C (stereo not drawn) | inactive | inactive | Active |
| – | – | – | COc1ccc2c3c([nH]c2c1)C[C@H]1CCCN1CC3 | Active | Active | Active |
| – | – | – | COc1cccc2[nH]c3c(c12)C[C@H]1CCCN1CC3 | Active | Active | Active |
